Test results taken from PubChem BioAssay (NCI).
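Compound exposure: 48 hours, 5 concentrations, 96-well plates. TGI is the concentration that stops growth completely.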

Experiments:
Experiment in all cases: inhibition of tumour cell growth, NCI panel, 48 h
[1] = system: HOP-18 NSCLC
[2] = system: XF 498 CNS
[3] = system: RXF-631 renal
[4] = system: LXFL 529 NSCLC
[5] = system: SNB-78 CNS

Compound	TGI [1] [µM]	TGI [2] [µM]	TGI [3] [µM]	TGI [4] [µM]	TGI [5] [µM]
NC(=O)N/N=C(/Cc1nc2ccc(C(=O)c3ccccc3)cc2[nH]c1=O)C(=O)Nc1ccc(C(F)(F)F)cc1[N+](=O)[O-]	> 100	> 100	> 100	> 100	> 100
O=C(Nc1cc(Cl)cc(Cl)c1)/C(Cc1nc2ccccc2[nH]c1=O)=N/NC(=O)c1ccncc1			> 100	> 100	> 100
O=S(=O)(c1ccccc1)n1cc(C[P+](c2ccccc2)(c2ccccc2)c2ccccc2)c2ccccc21		12.1		8.26	20.7
CN(C)CC1CCCCCCCCCC(CN(C)C)C1=O (stereo unspecified)	> 100	> 100	> 100	> 100	> 100
NCCCCC(=O)c1cccnc1	> 100	> 100		> 100	> 100
Cc1cc(=O)[nH]c(NNC(C#N)c2c(O)ccc3ccccc23)n1 (stereo unspecified)	> 100			47	> 100
Cc1cnc2c(c1)C(=O)C1=C(OC(C)(C)CC1O)C2=O (stereo unspecified)	29.3	34		29.9	
